The values that follow come from patent publication US5780505A, “Substituted N-arylmethylamino derivatives of cyclobutene-3, 4-diones” (American Home Products Corporation, priority 1997, dated 1998).

Like-named read-outs stand apart in the source and are kept apart here.

The IC50 is the point on the concentration scale where inhibition reaches its midpoint. One may read the inhibition as the drop in the measured response relative to a control, in per cent.

Assay [1] relates to hypertrophied bladder (detrussor) smooth muscle. Put plainly: Inhibition of spontaneous contractions in vivo (conscious female rats with hypertrophied bladders, cystometry). On the set-up: species or system Female Sprague-Dawley rats. To be noted: hypertrophied rat bladder model. The source says: In addition, we tested the ability of compounds to inhibit the hyperactivity of hypertrophied bladder (detrussor) smooth muscle in conscious female rats with hypertrophied bladders and thereby alleviate urinary incontinence in rats according to the following protocol described by Malmgren (A. Malmgren, K. E. Andersson, C. Sjogren, P. O. Andersson, Effects of pinacidil and Cromakalim (BRL 34915) on Bladder Function in Rats with Detrusor Instability, J. Urol. 142: 1134, 1989.):
Female Sprague-Dawley rats, ranging in weight from 190-210 g are used. Up to 25 animals are prepared each time. After developemnt of bladder hypertrophy 4-8 animals are used per test.
Compounds are dissolved in PEG-200 and administered by gastric gavage or intraveneously in a volume of 5 ml/kg. For primary screening all drugs are administered at the arbitrary dose of 10 mg/kg p.o. to groups of 4 rats.
The animals are anesthetized with halothane. Through a midline incision the bladder and urethra are exposed and a ligature of 4-0 silk is tied around the proximal urethra in the presence of a stainless steel rod (1 mm diameter) to produce a partial occlusion. The rod is then removed. The abdominal region is closed using surgical staples and each rat receives 150,000 units of bicillin C-R. The animals ar allowed six weeks to develop sufficient bladder hypertrophy. After six weeks, the ligature is removed under halothane anesthesia and a catheter (PE 60) with a cuff is placed in the dome of the bladder and secured with a purse string suture. The catheter is tunneled under the skin and exteriorized through an opening in the back of the neck. The abdominal incision is sutured and the free end of the catheter sealed. In order to prevent infections the rats receive an injection of bicillin C-R (150000 units/rat). Two days later the animals are used in cystometrical evaluations, The animals are placed in the metabolic cages and the catheter is attached (using a "T" connector) to a Statham pressure transducer (Model P23Db) and to a Harvard infusion pump. A plastic beaker attached to a force displacement transducer (Grass FTO3) is placed under the rat's cage to collect and record urine volume. Animals are allowed 15-30 min t rest before the saline infusion (20 ml/hr for 20 minutes) is started for the first cystometry period. Two hours after the first cystometry period, the rats are dosed with the vehicle or the test compound and one hour later a second cystometry is performed.
The following urodynamic variables are recorded:
Basal bladder pressure=the lowest bladder pressure during cystometry
Threshold pressure=bladder pressure immediately prior to micturition
Micturition volume=volume expelled
Micturition pressure=peak pressure during voiding
Spontaneous activity=mean amplitude of bladder pressure fluctuations during filling
Presentation of results: The mean value of each variable is calculated before and after compound administration. For each compound the changes in the variables measured are compared to the values obtained before treatment and expressed as percent inhibition. The data are also subjected to 2-way analysis of variance to determine significant (p<0.05) changes in the variable measured.
Criteria for Activity: The most characteristic finding in this rat model is spontaneous bladder contractions which develop during filling. The compounds which inhibit spontaneous contractions by at least 50% at 10 mg/kg p.o. or i.v. (arbitrary chosen dose) are considered active.

In assay [2] the test system is Isolated Rat Bladder Strips. Put plainly: Inhibition of contractions in isolated rat bladder strips (KCl-enhanced contractile activity; smooth muscle relaxation). Format: cell-based, Sprague-Dawley rats. To be noted: for inhibition at 30 µM: read-out: Percent inhibition at 30 μM (I). The method in brief: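 Bladder strips from Sprague-Dawley rats were held in 37 °C PSS (pH 7.4, 95% O2/5% CO2) at 1.5 g resting tension with isometric force recording. Contractions were enhanced by an extra 15 mM KCl, then cumulative compound concentrations were added, each measured over the last minute of 30 min. IC50 is 50% inhibition of pre-drug contractile activity from the concentration-response curve.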

Setting [3] is: 0.5 h, isolated rat bladder strips, 15 mM additional KCl, 30 minute challenge, read-out: IC50 (50% inhibition of pre-drug contractile activity).

For `CC(C)(C)Nc1c(NCc2ccc(C#N)cc2Cl)c(=O)c1=O` [Example 2, 4-[(2-tert-Butylamino-3,4-dioxo-cyclobut-1-enylamino)-methyl]-3-chloro-benzonitrile], the “% Red (F): percent reduction in the total number of spontaneous contractions” value (“% Red (F): percent reduction” for short) is -34 ± 11% in assay [1] (1 mg/kg p.o., prior lot of this compound (mp 234-236° C.)); -49 ± 8% in assay [1] (3 mg/kg p.o., prior lot of this compound (mp 234-236° C.)); -93 ± 3% in assay [1] (10 mg/kg p.o., prior lot of this compound (mp 234-236° C.)). Besides, the IC50 stood at 140 ± 20 nM in assay [2] (setting [3]) and 570 ± 340 nM in assay [2] (Rattus norvegicus, prior lot (mp 234-236° C., softens 225° C.), n = 4, read-out: IC50 of a prior lot).

As for `CC(Nc1c(NCc2ccc(C#N)cc2Cl)c(=O)c1=O)C(C)(C)C` (centres unmarked) [Example 6, 3-Chloro-4-{[3,4-dioxo-2-(1,2,2-trimethyl-propylamino)-cyclobut-1-enylamino]-methyl}-benzonitrile], the “% Red (F): percent reduction” value in assay [1] (3 mg/kg p.o.) is -51 ± 6%; in assay [1] (10 mg/kg p.o.), -71 ± 3%. Further, the IC50 in assay [2] (setting [3]) was found to be 660 ± 200 nM. The inhibition at 30 µM in assay [2] (Rattus norvegicus) is 41.2%.

Take `Cc1ccc(CNc2c(NC(C)(C)C)c(=O)c2=O)c(C)c1` [Example 8, 3-tert-Butylamino-4-(2,4-dimethyl-benzylamino)-cyclobut-3-ene-1,2-dione]: in assay [1] (3 mg/kg p.o.), the “% Red (F): percent reduction” value is reported as -38 ± 7%. For the same compound, in assay [2] (setting [3]), the IC50 was 630 ± 150 nM.

For the compound `CCc1cc(C#N)ccc1CNc1c(NC(C)(C)C)c(=O)c1=O` [Example 27, 4-[(2-tert-Butylamino-3,4-dioxo-cyclobut-1-enylamino)-methyl]-3-ethyl-benzonitrile], the “% Red (F): percent reduction” value in assay [1] (10 mg/kg p.o.) was -20 ± 22%. Besides, in assay [2] (setting [3]), the IC50 came to 240 ± 30 nM.

As to `C[C@@H](Nc1c(NCc2ccc(C#N)cc2Cl)c(=O)c1=O)C(C)(C)C` [Example 30, (R)-3-Chloro-4-{[3,4-dioxo-2-(1,2,2-trimethyl-propylamino)-cyclobut-1-enylamino]-methyl}-benzonitrile], the “% Red (F): percent reduction” value in assay [1] (3 mg/kg p.o.) is -68 ± 10%. Further, the IC50 in assay [2] (setting [3]) stood at 180 ± 30 nM. Moreover, the inhibition at 30 µM in assay [2] (Rattus norvegicus) turned out to be 23%.

In the case of `Cc1cccc(Cl)c1CNc1c(NC(C)(C)C)c(=O)c1=O` [Example 31, 3-tert-Butylamino-4-(2-chloro-6-methyl-benzylamino)-cyclobut-3-ene-1,2-dion], the “% Red (F): percent reduction” value in assay [1] (10 mg/kg p.o.) is on record as -38 ± 13%. For the same compound, the IC50 in assay [2] (setting [3]) was found to be 1100 ± 300 nM.

Take `Cc1cc(Br)cc(C)c1CNc1c(NC(C)(C)C)c(=O)c1=O` [Example 36, 3-(4-Bromo-2,6-dimethyl-benzylamino)-4-tert-butylamino-cyclobut-3-ene-1,2-dione]: the “% Red (F): percent reduction” value in assay [1] (3 mg/kg p.o.) is listed as -83 ± 9%. Further, in assay [2] (setting [3]), the IC50 was determined as 290 ± 20 nM.

As to `CCC(C)(C)Nc1c(NCc2ccc(C#N)cc2Cl)c(=O)c1=O` [Example 76], in assay [1] (3 mg/kg p.o.), the “% Red (F): percent reduction” value is on record as -57 ± 12%. In addition, the IC50 in assay [2] (setting [3]) came out at 60 ± 14 nM; in assay [2] (Rattus norvegicus, second lot (mp 215.5-216.0° C., softens 211.5° C.), n = 6, read-out: IC50 of a second lot) it was 130 ± 30 nM.

`CCC(C)(C)Nc1c(NCc2cccc(Cl)c2Cl)c(=O)c1=O` [Example 99, 3-(2,3-Dichloro-benzylamino)-4-(1,1-dimethyl-propylamino)-cyclobut-3-ene-1,2-dione]: in assay [2] (setting [3]), the IC50 came to 790 ± 470 nM.

As for `CC(C)(C)Nc1c(NCc2cccc(Cl)c2Cl)c(=O)c1=O` [Example 100, 3-(t-Butylamino)-4-(2,3-dichloro-benzylamino)-cyclobut-3-ene-1,2-dione], the IC50 in assay [2] (setting [3]) came out at 1240 ± 170 nM.

For `CCCC(=O)N(Cc1ccc(C#N)cc1Cl)c1c(NC(C)(C)C)c(=O)c1=O` [Example 101], in assay [2] (setting [3]), the IC50 is 2360 ± 1600 nM.
